From patent publication US10253002B2, “Compounds and methods of treating infections” (Neoculi Pty Ltd., priority 2013, dated 2019)
≈ marks a conversion by molar mass, not a printed value. Where “and” joins values, the source holds several entries; their conditions need not be identical. Equal values may be shown once. Read-outs that look alike come from different tables or passages of the source.

Tests used:
Type in all cases: cell-based
[1] = tested on: Staphylococcus pseudintermedius isolates (MSSP and MRSP); test: MIC (CLSI), Example 6
Method: Anti-staphylococcal compounds were then tested against all 23 isolates and minimum inhibitory concentrations (MIC) were determined according to standard protocols. After the MICs were determined, the minimum bactericidal concentrations were performed to determine if these compounds are bacteriostatic or bacteriocidal.

[2] = tested on: Pseudomonas aeruginosa; test: Broth microdilution MIC, Example 7 (NCL812 and analogues); conditions: for MIC: Pseudomonas aeruginosa
[3] = tested on: Salmonella arizonae; test: Broth microdilution MIC, Example 7
Method: Minimum inhibitory concentrations (μg/ml) were determined using the broth microdilution method recommended by the Clinical and Laboratory Standards Institute (CLSI). […] Bacterial growth (turbidity) in the wells with antimicrobial was compared with the amount of growth (turbidity) in the growth-control well (containing no antimicrobial). All isolates were tested in duplicate, if there was a difference of greater than one two-fold dilution in the results, the test was repeated a third time. The purity of the isolates was closely monitored during testing by subculturing the prepared bacterial inoculum onto SBA (sheep blood agar). The MICs of the control strains for the antimicrobial ampicillin were determined for each testing run as an internal quality control. The MIC50, […] and MIC range (minimum and maximum) were calculated for each of the bacterial groups.

[4] = tested on: Staphylococcus aureus T3-129 / Staphylococcus spp. MK1; test: Synergy studies, checkerboard method (FIC index)
[5] = 23 Staphylococcus pseudintermedius isolates
[6] = Staphylococcus pseudintermedius isolates
[7] = Staphylococcus pseudintermedius, Staphylococcus pseudintermedius isolates, read-out: MIC mode
[8] = Staphylococcus pseudintermedius, isolate S5P5, read-out: MIC
[9] = Staphylococcus pseudintermedius, isolate S6P6, read-out: MIC
[10] = Staphylococcus pseudintermedius, isolate S9P9, read-out: MIC
[11] = Staphylococcus pseudintermedius, isolate S10P10, read-out: MIC
[12] = Staphylococcus pseudintermedius, isolate S12P12, read-out: MIC
[13] = Staphylococcus pseudintermedius, isolate S13P13, read-out: MIC
[14] = Staphylococcus pseudintermedius, isolate S14P14, read-out: MIC
[15] = Staphylococcus pseudintermedius, isolate S16P16, read-out: MIC
[16] = Staphylococcus pseudintermedius, isolate S17P17, read-out: MIC
[17] = Staphylococcus pseudintermedius, isolate S21P21, read-out: MIC
[18] = Staphylococcus pseudintermedius, isolate S23P23, read-out: MIC
[19] = 24 h, read-out: MIC (μg/ml) at 24 hours, P. aeruginosa, 24 hours, 1st and 2nd replicate rows
[20] = P. aeruginosa, 1st, read-out: MIC
[21] = P. aeruginosa, 2nd, read-out: MIC

`N=C(N/N=C/c1ccc(Cl)cc1)N/N=C/c1ccc(Cl)cc1` [NCL812, 1,3-bis[(E)-(4-chlorophenyl)methyleneamino]guanidine] gave an MIC50 [1, 5] of 2 µg/mL (≈ 5.98 µM), an MIC range [1, 5] of 1 to 4 µg/mL and an MIC range [1, 6] of 1 to 4 µg/mL. It also gave an MIC ([1]; Staphylococcus pseudintermedius, 23 Staphylococcus pseudintermedius isolates, read-out: MIC mode) of 2 µg/mL (≈ 5.98 µM), an MIC [1, 7] of 2 µg/mL (≈ 5.98 µM) and an MIC ([1]; Staphylococcus pseudintermedius, isolate S2P2, read-out: MIC) of 2 µg/mL (≈ 5.98 µM). For the same compound, the MIC ([1]; Staphylococcus pseudintermedius, isolate S3P3, read-out: MIC) was 2 µg/mL (≈ 5.98 µM), the MIC ([1]; Staphylococcus pseudintermedius, isolate S4P4, read-out: MIC) was 1 µg/mL (≈ 2.99 µM) and the MIC [1, 8] was 2 µg/mL (≈ 5.98 µM). For the same compound, the MIC [1, 9] was 2 µg/mL (≈ 5.98 µM), the MIC ([1]; Staphylococcus pseudintermedius, isolate S7P7, read-out: MIC) was 2 µg/mL (≈ 5.98 µM) and the MIC ([1]; Staphylococcus pseudintermedius, isolate S8P8, read-out: MIC) was 2 µg/mL (≈ 5.98 µM). It also gave an MIC [1, 10] of 2 µg/mL (≈ 5.98 µM), an MIC [1, 11] of 2 µg/mL (≈ 5.98 µM) and an MIC [1, 12] of 2 µg/mL (≈ 5.98 µM). The MIC [1, 13] was 2 µg/mL (≈ 5.98 µM), the MIC [1, 14] was 2 µg/mL (≈ 5.98 µM) and the MIC [1, 15] was 2 µg/mL (≈ 5.98 µM). The MIC [1, 16] was 2 µg/mL (≈ 5.98 µM), the MIC [1, 17] was 2 µg/mL (≈ 5.98 µM) and the MIC [1, 18] was 2 µg/mL (≈ 5.98 µM). For the same compound, the “MIC (μg/ml) at 24 hours, P. aeruginosa” value ([2]; 24 hours, 1st and 2nd replicate rows) was greater than 128 µg/mL, the MIC [2, 19] was greater than 128 µg/mL and the MIC [2, 20] was greater than 128 µg/mL. The MIC [2, 21] was greater than 128 µg/mL, the MIC ([2]; read-out: MIC) was greater than 128 µg/mL and the MIC ([3]; S. arizonae, 1st) was greater than 128 µg/mL. The MIC ([3]; S. arizonae, 2nd) was greater than 128 µg/mL, the MIC ([3]; Salmonella enterica, Salmonella arizonae, read-out: MIC) was greater than 128 µg/mL and the FIC2 ([4]; MIC of NCL812 in combination with Chloramphenicol/MIC of NCL812 alone, S. aureus strain T3-29) was 0.25 and 0.5. For the same compound, the FIC2 ([4]; MIC of NCL812 in combination with Erythromycin/MIC of NCL812 alone, S. aureus strain T3-29) was 0.5 and 0.25, the FIC2 ([4]; MIC of NCL812 in combination with Penicillin G/MIC of NCL812 alone, Staphylococcus spp. Strain MK1) was 0.5 and the FIC2 ([4]; MIC of NCL812 in combination with Sulfamethoxazole/MIC of NCL812 alone, Staphylococcus spp. Strain MK1) was 0.25 and 0.5. For the same compound, the “NCL812 MIC Alone” value ([4]; Staphylococcus spp. Strain MK1, NCL812 alone) was 2 µg/mL, the “NCL812 MIC With Antibiotic” value ([4]; with Erythromycin, S. aureus strain T3-29) was 2 µg/mL and the “NCL812 MIC With Antibiotic” value ([4]; with Penicillin G, Staphylococcus spp. Strain MK1) was 2 µg/mL. For the same compound, the “NCL812 MIC With Antibiotic” value ([4]; with Sulfamethoxazole, Staphylococcus spp. Strain MK1) was 1 µg/mL and 2 µg/mL.
`CC1(C)S[C@@H]2[C@H](NC(=O)[C@H](N)c3ccccc3)C(=O)N2[C@H]1C(=O)O` [Ampicillin] gave an MIC50 [1, 6] of 32 µg/mL (≈ 91.6 µM), an MIC90 [1, 6] of 128 µg/mL (≈ 366 µM) and an MIC range [1, 6] of 0.1 to 128 µg/mL. The MIC [1, 7] was 128 µg/mL (≈ 366 µM), the MIC [1, 8] was 16 µg/mL (≈ 45.8 µM) and the MIC [1, 9] was 64 µg/mL (≈ 183 µM). For the same compound, the MIC [1, 10] was 32 µg/mL (≈ 91.6 µM), the MIC [1, 11] was 64 µg/mL (≈ 183 µM) and the MIC [1, 12] was 32 µg/mL (≈ 91.6 µM). It also gave an MIC [1, 13] of 0.25 µg/mL (≈ 0.715 µM), an MIC [1, 14] of 1 µg/mL (≈ 2.86 µM) and an MIC ([1]; Staphylococcus pseudintermedius, isolate S15P15, read-out: MIC) of 4 µg/mL (≈ 11.4 µM). It also gave an MIC [1, 15] of 0.25 µg/mL (≈ 0.715 µM), an MIC [1, 16] of 1 µg/mL (≈ 2.86 µM) and an MIC ([1]; Staphylococcus pseudintermedius, isolate S18P18, read-out: MIC) of 4 µg/mL (≈ 11.4 µM). It also gave an MIC ([1]; Staphylococcus pseudintermedius, isolate S19P19, read-out: MIC) of 0.5 µg/mL (≈ 1.43 µM), an MIC ([1]; Staphylococcus pseudintermedius, isolate S20P20, read-out: MIC) of 4 µg/mL (≈ 11.4 µM) and an MIC [1, 17] of 0.1 µg/mL (≈ 0.286 µM). For the same compound, the MIC ([1]; Staphylococcus pseudintermedius, isolate S22P22, read-out: MIC) was 8 µg/mL (≈ 22.9 µM), the MIC [1, 18] was 32 µg/mL (≈ 91.6 µM) and the MIC ([1]; isolate S1P1) was 128 µg/mL (≈ 366 µM). For the same compound, the MIC ([1]; isolate S3P3) was 128 µg/mL (≈ 366 µM), the MIC ([1]; isolate S4P4) was 128 µg/mL (≈ 366 µM) and the MIC ([1]; isolate S7P7) was 128 µg/mL (≈ 366 µM). The MIC ([1]; isolate S8P8) was 128 µg/mL (≈ 366 µM), the MIC ([1]; isolate S11P11) was 128 µg/mL (≈ 366 µM) and the MIC [2, 19] was greater than 128 µg/mL. For the same compound, the MIC [2, 20] was greater than 128 µg/mL, the MIC [2, 21] was greater than 128 µg/mL and the MIC ([3]; S. arizonae, 2nd) was 1 µg/mL (≈ 2.86 µM). The MIC ([3]; Salmonella enterica, S. arizonae, 1st, read-out: MIC) was 1 µg/mL (≈ 2.86 µM), the FICI ([4]; S. aureus strain T3-29, FIC index of antibiotic with NCL812) was 0.75 and 0.53 and the FIC1 ([4]; S. aureus strain T3-29, MIC of antibiotic in combination with NCL812/MIC of antibiotic alone) was 0.5. The “Result (interaction with NCL812)” value ([4]; S. aureus strain T3-29, antibiotic with NCL812) was “NE (No effect (NE) was defined as 0.5<FICI<4)”.
